Marks after values point to notes of the source that are not given here.
Assays:
[1] = tested on: model rats of middle cerebral artery thrombosis (MCAT); experiment: Effects on cerebral infarct area of MCAT rats; type: in vivo, SD rats; settings: for Cerebral infarct tissue weight/total brain weight (%): 24 h after operation, TTC staining; for Inhibition (%): cerebral infarct vs. model group; for cerebral infarct as compared with the model group (in words): 50 mg/kg, P<0.05
Thermal Stability = type: physicochemical; settings: 60° C., 10 days, HPLC
[2] = tested on: thrombus of artery-vein bypass in rats; experiment: Effects on thrombosis of artery-vein bypass in rats; type: in vivo, SD rats; settings: for Dry-weight of thrombus / Wet-weight of thrombus: once per day for 3 days; for Inhibition (%) of dry-weight of thrombus / Inhibition (%) of wet-weight of thrombus: vs. thrombus model group
Description: Testing methods are described in Chen-Qi, “Methodology for Pharmacological Research of Chinese Medicine”,People's Medical Publishing House, Sep. 1993, 1st ed., page 510. […] Equivalent amount of the vehicle was administered to the thrombus model group. The operation was conducted immediately after the final administration. […] The operation was conducted to separate the right common carotid artery and the left external jugular vein. A pre-weighed suture # 0 of 8 cm long was placed into the middle part of a polyethylene tube of 10 cm long. Then the tube was filled with normal saline, and connected at both ends to the cannula of 3 cm long filled with normal saline. One end of the tube was inserted into the left external jugular vein, and another end was inserted into the right common carotid artery. The blood flowed from the right common carotid artery to the polyethylene tube, and then flow back to the left external jugular vein, so as to construct a bypass circulation. […] The wet-weight of the thrombus was obtained by subtracting the weight of the suture and the paper from this total wet weight. […] The thrombus was taken out and weighed to obtain a total dry weight. The dry weight of the thrombus was obtained by subtracting the weight of the suture and the paper form this total dry weight. The results in each group were compared by student's t test. […] Testing Results

The Stability to Light = type: physicochemical; settings: 10 days, HPLC
[3] = tested on: model rats of middle cerebral artery thrombosis (MCAT); experiment: Effects on neural symptoms of MCAT rats; type: in vivo, SD rats; set-up: key to Scores 6 hours / Scores 24 hours: 0/1 per test, summed (max 4); higher = more severe behavioral disorder; settings: for Scores 6 hours: behavioral score 6 h after operation (full mark 4); for Scores 24 hours: behavioral score 24 h after operation (full mark 4)
Description: (1) Grouping and administration: […] Preventive administration was conducted by gavage one time per day for 3 days prior to the model being established. The model was established on day 4, and a dosage of one day was administered by gavage immediately after the model was established. Another dosage of one day was again administered by gavage 12 hours after the model was established. Equivalent amount of the vehicle was administered to the control group. […] Description of technique and early neuropathological consequences following middle cerebral artery occlusion. J Cereb Blood Flow Metab, 1981, 1: 53), and fixed in lateral decubitus position. A bowtype incision of 1.5 cm long was made at the midpoint between canthus and exterior auditory canal. Temporalis was broken and incised to expose temporal bone. […] The filter paper was removed after 30 min when the vascular became black. The localized tissue was washed with physiological brine, and sutured layer by layer. Then rats were placed back into the cages. By following the modified method of Bederson et al. […] (2) The animals were placed onto a smooth ground, and the resistance of contralateral shoulder to push was examined. “0” was recorded if the resistance of both shoulders were equal and strong; and “1” was recorded if the resistance of contralateral shoulder to push was decreased. […] (4) The tail of the rat was lifted 30 cm high away from the ground, and “1” was recorded if the animals ceaselessly circled contralaterally. “4” was full mark in accordance with the above-mentioned standard. The higher the score was, more severe the behavioral disorder of the animal was. 4. Results: The behavioral scores in each group were compared by student t test.

[4] = The Stability of Aqueous Solution; settings: for wt % decomposed product: aqueous solution 0.2 mg/ml; for decomposed product detected (in words): after exposed to water for 24 hours
Description: Compounds were dissolved in water to form aqueous solutions in a concentration of 0.2 mg/ml, and the amount of decomposed products were measured.
The amounts of decomposed products were determined in accordance with the test described in Pharmacopoeia of P.R. China, 2000 edition, appendix VD of part two, by HPLC method, C18 column, mobile phase of acetonitrile:0.02M sodium dihydrogen phosphate=40:60, detecting wavelength of 230 nm, flow rate of 1 ml/min.

[5] = The Stability to Humidity (high humidity test); type: physicochemical; settings: 10 days, HPLC purity
[6] = 50 mg/kg by gavage, vs. model group
[7] = 100 mg/kg by gavage, vs. model group
[8] = 200 mg/kg by gavage, vs. model group

Row | Compound | Cerebral infarct tissue weight/total brain weight (%) ([1]; 50 mg/kg by gavage) | Inhibition (%) ([1]; 50 mg/kg by gavage) | cerebral infarct as compared with the model group (in words) [1] | Cerebral infarct tissue weight/total brain weight (%) ([1]; 100 mg/kg by gavage) | Inhibition (%) ([1]; 100 mg/kg by gavage) | Cerebral infarct tissue weight/total brain weight (%) ([1]; 200 mg/kg by gavage) | Inhibition (%) ([1]; 200 mg/kg by gavage) | decomposed product detected, thermal stability (in words) (Thermal Stability) | decomposed product detected, stability to light (in words) (The Stability to Light) | Scores 6 hours ([3]; 50 mg/kg by gavage) | Scores 24 hours ([3]; 50 mg/kg by gavage) | % inhibition at hour 24 [3, 6] [%] | Scores 6 hours ([3]; 100 mg/kg by gavage) | Scores 24 hours ([3]; 100 mg/kg by gavage) | % inhibition at hour 24 [3, 7] [%] | Scores 6 hours ([3]; 200 mg/kg by gavage) | Scores 24 hours ([3]; 200 mg/kg by gavage) | % inhibition at hour 24 [3, 8] [%] | wt % decomposed product ([4]; 0 hr) [wt %] | wt % decomposed product ([4]; 1 hr) [wt %] | also measured
1 | CCCCC(=O)c1ccccc1C(=O)O.CCCCC(=O)c1ccccc1C(=O)O.c1ccc(CNCCNCc2ccccc2)cc1 [2-(α-n-pentanonyl)benzoate of N,N′-dibenzylethylene diamine] | 5.14 ± 2.17 | 30.63 | significantly reduced | 4.68 ± 1.69 | 41.06 | 4.60 ± 1.26 | 39.55 | no decomposed product | no decomposed product | 3.45 ± 0.69 | 2.91 ± 0.70 | 20.05 | 3.45 ± 0.52 | 2.36 ± 0.67 | 36.73 | 3.27 ± 0.79 | 2.55 ± 0.52 | 31.64 | – | – | Dry-weight of thrombus ([2]; 50 mg/kg by gavage): 39.0 ± 10.8 mg; Wet-weight of thrombus ([2]; 50 mg/kg by gavage): 207.1 ± 45.3 mg; Inhibition (%) of dry-weight of thrombus ([2]; 50 mg/kg by gavage): 23.98%; Inhibition (%) of wet-weight of thrombus ([2]; 50 mg/kg by gavage): 20.10%; Dry-weight of thrombus ([2]; 100 mg/kg by gavage): 29.9 ± 13.6 mg; Wet-weight of thrombus ([2]; 100 mg/kg by gavage): 157.9 ± 67.9 mg; Inhibition (%) of dry-weight of thrombus ([2]; 100 mg/kg by gavage): 41.72%; Inhibition (%) of wet-weight of thrombus ([2]; 100 mg/kg by gavage): 39.08%; Dry-weight of thrombus ([2]; 200 mg/kg by gavage): 32.3 ± 12.5 mg; Wet-weight of thrombus ([2]; 200 mg/kg by gavage): 191.7 ± 34.8 mg; Inhibition (%) of dry-weight of thrombus ([2]; 200 mg/kg by gavage): 37.04%; Inhibition (%) of wet-weight of thrombus ([2]; 200 mg/kg by gavage): 26.04%
2 | CCCCC(O)c1ccccc1C(=O)[O-].[K+] (stereo not drawn) [Potassium 2-(α-hydroxypentyl)benzoate] | 6.16 ± 2.46 | 16.87 | – | 5.73 ± 2.20 | 27.83 | 5.37 ± 2.00 | 29.43 | – | – | 3.50 ± 0.71 | 3.30 ± 0.48 | – | 3.55 ± 0.52 | 3.00 ± 0.89 | – | 3.45 ± 0.52 | 2.73 ± 0.79 | – | 0 | 0.2 | wt % decomposed product ([4]; 2 hr): 0.36 wt %; wt % decomposed product ([4]; 4 hr): 0.75 wt %; wt % decomposed product ([4]; 16 hr): 4.5 wt %; wt % decomposed product ([4]; 24 hr): 5.3 wt %; decomposition after absorbing moisture (in words) [5]: highly decomposed
3 | CCCCC(=O)c1ccccc1C(=O)[O-].[K+] [Potassium 2-(α-n-pentanonyl)benzoate, potassium 2-(α-n-pentanonyl)benzoate] | 5.63 ± 1.52 | 24.02 | significantly reduced | 5.09 ± 2.04 | 35.89 | 4.38 ± 1.54 | 42.44 | no decomposed product | no decomposed product | 3.27 ± 0.79 | 2.91 ± 0.70 | – | 3.36 ± 0.67 | 2.82 ± 0.75 | – | 3.20 ± 0.63 | 2.10 ± 0.32***^,s | – | 0 | 0 | Dry-weight of thrombus ([2]; 50 mg/kg by gavage): 38.3 ± 15.4 mg; Wet-weight of thrombus ([2]; 50 mg/kg by gavage): 208.8 ± 45.3 mg; Inhibition (%) of dry-weight of thrombus ([2]; 50 mg/kg by gavage): 25.34%; Inhibition (%) of wet-weight of thrombus ([2]; 50 mg/kg by gavage): 19.44%; Dry-weight of thrombus ([2]; 100 mg/kg by gavage): 35.6 ± 14.0 mg; Wet-weight of thrombus ([2]; 100 mg/kg by gavage): 192.6 ± 41.2 mg; Inhibition (%) of dry-weight of thrombus ([2]; 100 mg/kg by gavage): 30.60%; Inhibition (%) of wet-weight of thrombus ([2]; 100 mg/kg by gavage): 25.69%; Dry-weight of thrombus ([2]; 200 mg/kg by gavage): 28.3 ± 16.3 mg; Wet-weight of thrombus ([2]; 200 mg/kg by gavage): 157.0 ± 51.4 mg; Inhibition (%) of dry-weight of thrombus ([2]; 200 mg/kg by gavage): 44.83%; Inhibition (%) of wet-weight of thrombus ([2]; 200 mg/kg by gavage): 39.43%; decomposed product detected (in words) [4]: no decomposed product; wt % decomposed product ([4]; 2 hr): 0 wt %; wt % decomposed product ([4]; 4 hr): 0 wt %; wt % decomposed product ([4]; 16 hr): 0 wt %; wt % decomposed product ([4]; 24 hr): 0 wt %
4 | CCCCC(=O)c1ccccc1C(=O)[O-].[Na+] [Sodium 2-(α-n-pentanonyl)benzoate, sodium 2-(α-n-pentanonyl)benzoate] | – | – | significantly reduced | – | – | – | – | no decomposed product | no decomposed product | – | – | – | – | – | – | – | – | – | 0 | 0 | decomposed product detected (in words) [4]: no decomposed product; wt % decomposed product ([4]; 2 hr): 0 wt %; wt % decomposed product ([4]; 4 hr): 0 wt %; wt % decomposed product ([4]; 16 hr): 0 wt %; wt % decomposed product ([4]; 24 hr): 0 wt %
5 | Calcium 2-(α-hydroxypentyl)benzoate | 6.39 ± 2.33 | 13.77 | – | 5.82 ± 1.90 | 26.70 | 5.41 ± 1.77 | 28.91 | – | – | 3.45 ± 0.52 | 3.36 ± 0.50 | 7.69 | 3.55 ± 0.52 | 3.09 ± 0.70 | 17.16 | 3.45 ± 0.52 | 2.91 ± 0.54 | 21.98 | – | – | –
6 | N,N′-dibenzylethylenediamine 2-(α-hydroxypentyl)benzoate | 5.85 ± 2.32 | 21.05 | – | 5.50 ± 1.82 | 30.73 | 5.09 ± 2.14 | 33.11 | – | – | 3.45 ± 0.52 | 3.09 ± 0.54 | 15.11 | 3.45 ± 0.52 | 2.91 ± 0.70 | 21.98 | 3.36 ± 0.67 | 2.82 ± 0.87 | 24.40 | – | – | alleviation on neural symptoms at 24 hours after the operation (in words) ([3]; 50 mg/kg, vs. model group, P<0.01 or P<0.05): significantly alleviation

Source: US20070203233A1, “NOVEL 2-(alpha-N-PENTANONYL)BENZOATES, THEIR PREPARATION AND USE” (priority 2004, published 2007)
